From ChEMBL document CHEMBL5465560, “Selectivity Literature for EUbOPEN Chemogenomic Library” (2024)

Legend:
[1] = target: T1, Mitogen-activated protein kinase 15 (Homo sapiens) (UniProt Q8TD08); assay: Selectivity interaction (KinomeScan (DiscoverX)) EUB0000229b MAPK15; conditions: at 10 µM
T1 sequence (whole entry): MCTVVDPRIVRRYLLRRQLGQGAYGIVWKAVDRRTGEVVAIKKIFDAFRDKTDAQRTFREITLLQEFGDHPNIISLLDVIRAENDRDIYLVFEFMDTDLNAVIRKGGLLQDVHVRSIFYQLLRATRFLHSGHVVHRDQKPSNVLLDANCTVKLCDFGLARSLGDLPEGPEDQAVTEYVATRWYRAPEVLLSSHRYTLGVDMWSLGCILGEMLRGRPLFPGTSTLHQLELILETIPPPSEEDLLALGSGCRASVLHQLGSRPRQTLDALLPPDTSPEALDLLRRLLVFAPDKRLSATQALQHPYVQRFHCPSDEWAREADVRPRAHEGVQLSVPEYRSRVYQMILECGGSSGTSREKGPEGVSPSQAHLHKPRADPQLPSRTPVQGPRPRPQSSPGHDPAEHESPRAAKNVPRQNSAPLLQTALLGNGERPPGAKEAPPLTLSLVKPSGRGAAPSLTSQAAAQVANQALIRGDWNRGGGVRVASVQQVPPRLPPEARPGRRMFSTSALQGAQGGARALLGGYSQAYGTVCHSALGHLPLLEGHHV

[2] = target: Ribosomal protein S6 kinase alpha-4 (Homo sapiens) (UniProt O75676); assay: Selectivity interaction (KinomeScan (DiscoverX)) EUB0000092b RPS6KA4; conditions: at 10 µM
Ephrin type-A receptor 4 = Ephrin type-A receptor 4 (Homo sapiens, UniProt P54764); assay: Selectivity interaction (KinomeScan (DiscoverX)) EUB0000655a EPHA4; conditions: at 10 µM
[3] = target: Serine/threonine-protein kinase Chk2 (Homo sapiens) (UniProt O96017); assay: Selectivity interaction (ActivX KiNativ screen (kinase selectivity in THP-1 cell lysates)) EUB0000639a CHEK2; format: subcellular; conditions: lysate, at 5 µM
[4] = target: Casein kinase II subunit alpha (Homo sapiens, UniProt P68400); conditions: at 10 µM
[5] = target: T2, Dual specificity tyrosine-phosphorylation-regulated kinase 2 (Homo sapiens) (UniProt Q92630); assay: Selectivity interaction (KinomeScan (DiscoverX)) EUB0000045b DYRK2
T2 sequence (whole entry): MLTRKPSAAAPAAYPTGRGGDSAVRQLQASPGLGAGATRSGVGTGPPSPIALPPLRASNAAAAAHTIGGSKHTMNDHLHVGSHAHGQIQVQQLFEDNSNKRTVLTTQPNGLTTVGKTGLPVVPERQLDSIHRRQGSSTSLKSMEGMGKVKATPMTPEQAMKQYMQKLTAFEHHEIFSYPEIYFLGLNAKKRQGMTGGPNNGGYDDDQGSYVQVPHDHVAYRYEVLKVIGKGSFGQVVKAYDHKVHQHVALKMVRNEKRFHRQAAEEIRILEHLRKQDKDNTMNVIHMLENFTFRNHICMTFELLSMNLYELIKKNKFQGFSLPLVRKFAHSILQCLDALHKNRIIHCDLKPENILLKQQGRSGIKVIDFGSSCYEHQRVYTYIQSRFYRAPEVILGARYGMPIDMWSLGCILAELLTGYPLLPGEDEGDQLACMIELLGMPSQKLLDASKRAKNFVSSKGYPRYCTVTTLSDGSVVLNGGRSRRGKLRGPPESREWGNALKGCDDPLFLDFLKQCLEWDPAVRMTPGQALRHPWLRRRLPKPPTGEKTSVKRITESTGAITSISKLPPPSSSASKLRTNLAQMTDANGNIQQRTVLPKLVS

[6] = target: T3, Serine/threonine-protein kinase Nek9 (Homo sapiens) (UniProt Q8TD19); assay: Selectivity interaction (ActivX KiNativ screen (ex vivo kinase selectivity in human PBMCs)) EUB0001619a NEK9; format: cell-based; conditions: PBMC, at 1 µM
T3 sequence (whole entry): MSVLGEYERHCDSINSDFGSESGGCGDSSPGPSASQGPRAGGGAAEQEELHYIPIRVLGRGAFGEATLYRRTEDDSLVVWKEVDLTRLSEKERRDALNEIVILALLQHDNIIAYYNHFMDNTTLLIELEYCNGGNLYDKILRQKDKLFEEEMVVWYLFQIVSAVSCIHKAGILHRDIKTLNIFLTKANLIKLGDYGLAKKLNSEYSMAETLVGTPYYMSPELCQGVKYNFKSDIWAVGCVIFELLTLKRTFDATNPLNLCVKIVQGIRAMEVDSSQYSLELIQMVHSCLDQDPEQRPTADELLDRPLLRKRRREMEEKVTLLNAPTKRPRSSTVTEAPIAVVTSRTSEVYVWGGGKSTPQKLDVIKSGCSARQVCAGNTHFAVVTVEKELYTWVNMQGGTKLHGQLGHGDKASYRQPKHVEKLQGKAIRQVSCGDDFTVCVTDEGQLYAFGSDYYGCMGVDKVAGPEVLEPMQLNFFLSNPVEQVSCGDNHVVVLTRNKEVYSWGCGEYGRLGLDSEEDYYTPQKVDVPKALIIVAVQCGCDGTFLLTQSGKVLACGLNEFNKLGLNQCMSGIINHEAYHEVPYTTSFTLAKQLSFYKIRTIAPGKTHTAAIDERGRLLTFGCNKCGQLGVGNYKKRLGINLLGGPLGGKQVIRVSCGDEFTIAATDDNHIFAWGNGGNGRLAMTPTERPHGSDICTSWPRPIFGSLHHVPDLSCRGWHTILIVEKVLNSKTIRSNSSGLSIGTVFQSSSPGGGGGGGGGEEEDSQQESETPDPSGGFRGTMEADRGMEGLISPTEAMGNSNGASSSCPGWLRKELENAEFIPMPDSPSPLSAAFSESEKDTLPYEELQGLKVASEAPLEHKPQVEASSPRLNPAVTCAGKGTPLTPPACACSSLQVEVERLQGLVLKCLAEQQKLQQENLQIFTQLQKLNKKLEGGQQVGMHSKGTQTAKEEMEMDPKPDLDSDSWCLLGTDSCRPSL

Sequence of Ephrin type-A receptor 4 (P54764 whole entry): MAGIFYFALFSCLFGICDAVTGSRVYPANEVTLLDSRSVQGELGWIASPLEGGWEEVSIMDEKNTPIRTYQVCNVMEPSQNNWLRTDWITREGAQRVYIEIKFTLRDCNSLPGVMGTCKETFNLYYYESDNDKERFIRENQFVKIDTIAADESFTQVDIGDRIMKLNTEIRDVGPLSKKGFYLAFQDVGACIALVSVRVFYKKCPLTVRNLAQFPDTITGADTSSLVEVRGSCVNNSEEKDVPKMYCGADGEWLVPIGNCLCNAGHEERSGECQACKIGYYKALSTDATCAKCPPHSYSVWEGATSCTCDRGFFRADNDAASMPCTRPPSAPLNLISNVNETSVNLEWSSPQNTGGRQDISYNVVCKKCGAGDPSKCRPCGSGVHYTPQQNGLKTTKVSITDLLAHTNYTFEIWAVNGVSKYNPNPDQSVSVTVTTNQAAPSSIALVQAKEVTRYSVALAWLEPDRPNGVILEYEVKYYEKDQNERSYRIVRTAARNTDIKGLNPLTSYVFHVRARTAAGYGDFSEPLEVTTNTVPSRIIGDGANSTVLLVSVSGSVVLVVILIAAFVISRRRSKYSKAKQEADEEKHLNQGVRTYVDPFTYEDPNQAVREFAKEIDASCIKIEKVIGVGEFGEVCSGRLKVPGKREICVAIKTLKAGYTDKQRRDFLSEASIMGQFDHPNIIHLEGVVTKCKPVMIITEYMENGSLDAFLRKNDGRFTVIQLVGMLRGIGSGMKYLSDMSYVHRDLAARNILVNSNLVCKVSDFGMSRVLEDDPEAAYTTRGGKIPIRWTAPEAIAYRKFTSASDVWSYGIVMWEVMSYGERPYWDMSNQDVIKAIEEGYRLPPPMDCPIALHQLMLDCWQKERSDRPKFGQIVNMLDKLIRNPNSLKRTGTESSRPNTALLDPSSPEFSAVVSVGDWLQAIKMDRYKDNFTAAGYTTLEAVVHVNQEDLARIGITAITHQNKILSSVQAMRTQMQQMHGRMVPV
Sequence of Serine/threonine-protein kinase Chk2 (Homo sapiens) (O96017 whole entry): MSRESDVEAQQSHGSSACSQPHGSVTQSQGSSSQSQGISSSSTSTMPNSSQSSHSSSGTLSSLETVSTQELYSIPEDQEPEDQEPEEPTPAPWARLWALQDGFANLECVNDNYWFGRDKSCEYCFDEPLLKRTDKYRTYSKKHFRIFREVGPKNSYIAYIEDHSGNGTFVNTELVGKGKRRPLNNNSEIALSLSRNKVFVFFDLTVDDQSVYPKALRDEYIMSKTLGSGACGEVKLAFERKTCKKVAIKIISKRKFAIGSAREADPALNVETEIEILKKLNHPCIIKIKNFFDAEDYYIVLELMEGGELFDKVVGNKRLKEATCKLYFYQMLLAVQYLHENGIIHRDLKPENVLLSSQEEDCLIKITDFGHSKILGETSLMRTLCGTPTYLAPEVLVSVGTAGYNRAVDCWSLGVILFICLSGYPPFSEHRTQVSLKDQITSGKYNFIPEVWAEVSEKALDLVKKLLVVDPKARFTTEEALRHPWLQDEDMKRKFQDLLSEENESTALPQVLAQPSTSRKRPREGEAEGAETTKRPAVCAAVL
Sequence of Casein kinase II subunit alpha (P68400 whole entry, looked up): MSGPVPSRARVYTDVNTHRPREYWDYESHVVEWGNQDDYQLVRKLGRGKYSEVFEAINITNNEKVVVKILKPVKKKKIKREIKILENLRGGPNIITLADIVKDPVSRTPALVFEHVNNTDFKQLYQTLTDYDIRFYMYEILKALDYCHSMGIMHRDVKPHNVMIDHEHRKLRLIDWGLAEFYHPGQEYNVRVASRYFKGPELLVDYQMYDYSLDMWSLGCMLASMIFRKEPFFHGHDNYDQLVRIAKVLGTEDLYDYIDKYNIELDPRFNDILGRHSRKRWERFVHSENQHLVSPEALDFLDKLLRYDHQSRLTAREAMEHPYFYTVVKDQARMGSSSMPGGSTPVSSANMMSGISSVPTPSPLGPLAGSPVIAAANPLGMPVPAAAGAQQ
Sequence of Ribosomal protein S6 kinase alpha-4 (Homo sapiens) (O75676 whole entry, looked up): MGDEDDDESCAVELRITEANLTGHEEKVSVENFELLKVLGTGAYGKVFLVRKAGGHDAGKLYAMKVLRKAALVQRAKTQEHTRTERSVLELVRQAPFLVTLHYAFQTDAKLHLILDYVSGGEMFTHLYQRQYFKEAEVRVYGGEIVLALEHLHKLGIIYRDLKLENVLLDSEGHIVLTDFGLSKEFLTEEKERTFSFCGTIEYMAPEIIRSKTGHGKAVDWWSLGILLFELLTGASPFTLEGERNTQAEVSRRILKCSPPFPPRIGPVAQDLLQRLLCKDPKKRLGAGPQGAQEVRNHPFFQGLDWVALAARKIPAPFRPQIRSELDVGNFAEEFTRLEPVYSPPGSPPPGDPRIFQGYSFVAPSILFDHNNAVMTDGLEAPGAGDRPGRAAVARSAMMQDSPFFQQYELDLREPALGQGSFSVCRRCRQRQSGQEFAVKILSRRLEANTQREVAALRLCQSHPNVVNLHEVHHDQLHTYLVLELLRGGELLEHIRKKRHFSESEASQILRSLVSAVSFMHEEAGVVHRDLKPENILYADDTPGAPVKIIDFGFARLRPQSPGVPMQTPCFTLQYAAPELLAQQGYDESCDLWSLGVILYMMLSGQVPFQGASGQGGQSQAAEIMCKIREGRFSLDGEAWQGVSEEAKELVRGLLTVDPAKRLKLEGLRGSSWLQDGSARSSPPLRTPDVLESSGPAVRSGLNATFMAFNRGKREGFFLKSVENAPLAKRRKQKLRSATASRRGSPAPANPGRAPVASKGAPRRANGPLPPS

Structure (SMILES): COc1cc(N(C)c2ccnc3ccc(C(F)(F)F)cc23)cc(OC)c1OC
- % binding [1]: 100%

Structure (SMILES): CCC(=O)N1CCN(c2ccc(-n3c(=O)ccc4cnc5ccc(-c6cnc7ccccc7c6)cc5c43)cc2C(F)(F)F)CC1
- % of control [2]: 100%

Structure (SMILES): CN(C)CCOc1ccc(-c2nc(-c3ccncc3)c(-c3ccc4c(c3)CC/C4=N\O)[nH]2)cc1
- % of control (Ephrin type-A receptor 4): 100%

Structure (SMILES): CC[C@@H]1[C@H](F)C(=O)N[C@@H]1COc1nccc2cc(C(N)=O)c(OC)cc12 [ZIMLOVISERTIB]
- % of inhibition [3]: 65.9%

Structure (SMILES): COCC(=O)NC/C=C/c1ccc2ncnc(Nc3ccc(Oc4ccc(C)nc4)c(C)c3)c2c1 [CP-724714]
- % of control [4]: 87%

Structure (SMILES): C=CC(=O)Nc1cc(-n2c(=O)ccc3cnc4ccc(-c5ccc(NS(C)(=O)=O)cc5)cc4c32)ccc1C
- % of control ([5]; at 1 µM): 100%
- % of control ([5]; at 10 µM): 91%

Structure (SMILES): N#Cc1cccc(-c2c[nH]c3ncnc(N4CCOCC4)c23)c1
- % of inhibition [6]: 1%
